According to ChEMBL document CHEMBL6074628, “Rational design, synthesis and pharmacological characterization of novel aminopeptidase A inhibitors” (Bioorg Med Chem Lett, 2024):
≈ marks a conversion by molar mass, not a printed value.

Tests used:
Glutamyl aminopeptidase = target: T1, Glutamyl aminopeptidase (Mus musculus, UniProt P16406); test: Inhibition of recombinant mouse aminopeptidase A activity
T1 sequence (P16406 whole entry): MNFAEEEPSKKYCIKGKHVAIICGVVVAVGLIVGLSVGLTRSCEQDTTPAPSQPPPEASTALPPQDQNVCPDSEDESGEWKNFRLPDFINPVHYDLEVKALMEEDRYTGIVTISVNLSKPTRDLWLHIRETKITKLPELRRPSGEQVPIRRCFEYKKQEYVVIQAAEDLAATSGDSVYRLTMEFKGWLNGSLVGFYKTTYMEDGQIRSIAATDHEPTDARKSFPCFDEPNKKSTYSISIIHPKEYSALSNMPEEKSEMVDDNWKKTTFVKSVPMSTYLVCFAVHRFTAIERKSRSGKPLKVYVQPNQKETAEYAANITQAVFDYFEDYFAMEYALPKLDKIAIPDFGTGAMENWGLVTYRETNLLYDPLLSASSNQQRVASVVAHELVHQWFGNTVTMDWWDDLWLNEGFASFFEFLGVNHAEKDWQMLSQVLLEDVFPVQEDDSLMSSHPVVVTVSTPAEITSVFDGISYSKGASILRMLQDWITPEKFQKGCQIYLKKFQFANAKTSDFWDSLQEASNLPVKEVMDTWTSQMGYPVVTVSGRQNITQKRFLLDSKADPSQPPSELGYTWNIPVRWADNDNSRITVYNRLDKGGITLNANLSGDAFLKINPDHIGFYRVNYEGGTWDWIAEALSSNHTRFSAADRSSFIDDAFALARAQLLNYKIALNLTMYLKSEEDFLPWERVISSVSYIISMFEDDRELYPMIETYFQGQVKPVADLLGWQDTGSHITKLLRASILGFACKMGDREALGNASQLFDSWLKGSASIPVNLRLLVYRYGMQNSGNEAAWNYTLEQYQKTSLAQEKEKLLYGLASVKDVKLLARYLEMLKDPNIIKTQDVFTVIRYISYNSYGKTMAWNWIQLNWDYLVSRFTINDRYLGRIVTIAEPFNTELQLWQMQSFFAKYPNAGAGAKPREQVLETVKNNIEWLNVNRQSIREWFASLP

Aminopeptidase N = Aminopeptidase N (Homo sapiens, UniProt P15144); test: Inhibition of APN (unknown origin)
[1] = Inhibition of APA (unknown origin)
[2] = Inhibition of rabbit kidney aminopeptidase A using GluNA as substrate incubated for 1 hrs by absorbance based assay
[3] = Solubility of compound in phosphate buffer at pH 7.4
in vivo [4] = conditions: mouse
[5] = Drug concentration in Sprague-Dawley rat brain at 2 mg/kg, iv measured after 5 mins
[6] = Stability in rat hepatocyte assessed as parent compound remaining measured after 1 hrs; conditions: hepatocytes
[7] = Stability in human hepatocyte assessed as parent compound remaining measured after 1 hrs; conditions: hepatocytes
[8] = Drug concentration in Sprague-Dawley rat cerebrospinal fluid at 2 mg/kg, iv measured after 60 mins
Cytochrome P450 2C19 = Cytochrome P450 2C19 (Homo sapiens, UniProt P33261); test: Inhibition of CYP2C19 (unknown origin)
Cytochrome P450 1A2 = target: T2, Cytochrome P450 1A2 (Homo sapiens, UniProt P05177); test: Inhibition of CYP1A2 (unknown origin)
T2 sequence (P05177 whole entry): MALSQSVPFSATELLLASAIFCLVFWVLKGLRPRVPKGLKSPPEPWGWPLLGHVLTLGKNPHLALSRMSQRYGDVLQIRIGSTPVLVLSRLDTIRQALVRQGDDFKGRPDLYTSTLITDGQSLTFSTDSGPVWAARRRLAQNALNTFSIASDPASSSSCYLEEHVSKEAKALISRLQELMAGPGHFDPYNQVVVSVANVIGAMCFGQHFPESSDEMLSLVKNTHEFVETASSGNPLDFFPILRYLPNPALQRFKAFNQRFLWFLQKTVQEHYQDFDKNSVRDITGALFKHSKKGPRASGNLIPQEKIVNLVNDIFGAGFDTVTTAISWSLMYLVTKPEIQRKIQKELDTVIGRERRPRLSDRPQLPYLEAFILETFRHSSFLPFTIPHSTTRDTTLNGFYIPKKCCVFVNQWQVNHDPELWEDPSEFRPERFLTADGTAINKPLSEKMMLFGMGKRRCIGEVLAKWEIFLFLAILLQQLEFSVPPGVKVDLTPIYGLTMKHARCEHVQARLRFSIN

[9] = Half-life in Sprague-Dawley rat at 2 mg/kg, iv; conditions: in vivo
Cytochrome P450 2B6 = target: T3, Cytochrome P450 2B6 (Homo sapiens, UniProt P20813); test: Inhibition of CYP2B6 (unknown origin)
T3 sequence (P20813 whole entry): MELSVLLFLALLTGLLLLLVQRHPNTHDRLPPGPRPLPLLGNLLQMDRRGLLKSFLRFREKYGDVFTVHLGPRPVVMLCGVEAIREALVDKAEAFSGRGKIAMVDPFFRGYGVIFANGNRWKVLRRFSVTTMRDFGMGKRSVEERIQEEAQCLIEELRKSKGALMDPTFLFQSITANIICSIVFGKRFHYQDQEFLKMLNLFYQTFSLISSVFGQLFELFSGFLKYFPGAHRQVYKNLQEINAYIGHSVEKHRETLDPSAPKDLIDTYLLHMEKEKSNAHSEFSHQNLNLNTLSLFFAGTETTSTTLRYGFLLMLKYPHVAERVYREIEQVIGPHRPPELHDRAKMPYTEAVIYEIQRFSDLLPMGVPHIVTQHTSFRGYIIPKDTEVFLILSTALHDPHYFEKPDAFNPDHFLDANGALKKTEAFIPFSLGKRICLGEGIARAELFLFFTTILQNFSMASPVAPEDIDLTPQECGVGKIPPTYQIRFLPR

[10] = Hepatic extraction ratio in Sprague-Dawley rat at 2 mg/kg, iv; conditions: in vivo
Cytochrome P450 2C9 = Cytochrome P450 2C9 (Homo sapiens, UniProt P11712); test: Inhibition of CYP2C9 (unknown origin)
[11] = Drug concentration in Sprague-Dawley rat cerebrospinal fluid at 2 mg/kg, iv measured after 5 mins
[12] = Apparent permeability in human Caco-2 cells
Cytochrome P450 2D6 = Cytochrome P450 2D6 (Homo sapiens, UniProt P10635); test: Inhibition of CYP2D6 (unknown origin)
[13] = Drug concentration in Sprague-Dawley rat brain at 2 mg/kg, iv measured after 60 mins
in vivo [14] = conditions: Sprague-Dawley, rat, iv, 2 mg/kg
Description: Renal clearance in Sprague-Dawley rat at 2 mg/kg, iv

in vivo [15] = conditions: Sprague-Dawley, rat, iv, 2 mg/kg; remark: listed apart in the source
Description: Cmax in Sprague-Dawley rat at 2 mg/kg, iv

Cytochrome P450 3A4 = Cytochrome P450 3A4 (Homo sapiens, UniProt P08684); test: Inhibition of CYP3A4 (unknown origin)
in vivo [16] = conditions: mouse, po, 20 mg/kg
Description: AUC (0 to t) in mouse at 20 mg/kg, po

in vivo [17] = conditions: mouse, iv, 2 mg/kg
Description: AUC (0 to t) in mouse at 2 mg/kg, iv

Chain of Aminopeptidase N (P15144 whole entry): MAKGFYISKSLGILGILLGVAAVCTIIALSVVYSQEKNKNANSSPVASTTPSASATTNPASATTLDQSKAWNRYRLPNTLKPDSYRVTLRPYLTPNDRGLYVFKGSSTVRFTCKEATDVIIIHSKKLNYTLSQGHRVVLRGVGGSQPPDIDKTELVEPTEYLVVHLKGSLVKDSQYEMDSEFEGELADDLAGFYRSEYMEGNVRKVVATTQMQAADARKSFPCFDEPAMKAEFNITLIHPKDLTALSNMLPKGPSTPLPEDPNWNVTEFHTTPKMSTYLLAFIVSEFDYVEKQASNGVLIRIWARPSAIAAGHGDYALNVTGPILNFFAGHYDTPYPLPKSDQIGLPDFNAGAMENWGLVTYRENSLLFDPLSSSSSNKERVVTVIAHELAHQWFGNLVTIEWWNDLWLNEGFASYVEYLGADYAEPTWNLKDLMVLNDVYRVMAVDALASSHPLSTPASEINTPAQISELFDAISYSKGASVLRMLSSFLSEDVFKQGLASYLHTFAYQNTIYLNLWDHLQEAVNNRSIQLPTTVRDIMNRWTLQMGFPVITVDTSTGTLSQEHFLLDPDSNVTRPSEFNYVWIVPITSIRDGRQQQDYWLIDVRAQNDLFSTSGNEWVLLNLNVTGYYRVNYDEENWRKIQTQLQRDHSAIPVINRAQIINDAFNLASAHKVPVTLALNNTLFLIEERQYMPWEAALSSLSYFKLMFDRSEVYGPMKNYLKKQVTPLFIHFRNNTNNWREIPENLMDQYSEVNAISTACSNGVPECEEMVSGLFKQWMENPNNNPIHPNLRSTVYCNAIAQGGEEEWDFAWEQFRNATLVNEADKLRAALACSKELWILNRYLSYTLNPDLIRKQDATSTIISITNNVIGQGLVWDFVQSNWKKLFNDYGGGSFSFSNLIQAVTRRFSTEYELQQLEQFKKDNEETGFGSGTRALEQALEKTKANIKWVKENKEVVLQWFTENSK
Chain of Cytochrome P450 2D6 (P10635 whole entry): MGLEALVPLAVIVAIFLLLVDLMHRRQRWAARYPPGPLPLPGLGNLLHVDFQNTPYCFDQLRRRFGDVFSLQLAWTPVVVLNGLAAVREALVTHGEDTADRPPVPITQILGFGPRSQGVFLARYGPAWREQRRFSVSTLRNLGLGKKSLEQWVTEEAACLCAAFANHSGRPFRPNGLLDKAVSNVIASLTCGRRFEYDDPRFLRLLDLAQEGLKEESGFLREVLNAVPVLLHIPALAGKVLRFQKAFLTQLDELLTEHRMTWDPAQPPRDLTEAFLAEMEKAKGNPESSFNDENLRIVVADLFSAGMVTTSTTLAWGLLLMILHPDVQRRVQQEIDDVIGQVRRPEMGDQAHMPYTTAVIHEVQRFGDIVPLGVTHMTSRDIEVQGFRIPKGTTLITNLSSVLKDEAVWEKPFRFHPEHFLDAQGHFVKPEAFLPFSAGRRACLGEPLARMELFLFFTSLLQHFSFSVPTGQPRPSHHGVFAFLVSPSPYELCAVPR
Chain of Cytochrome P450 2C9 (P11712 whole entry): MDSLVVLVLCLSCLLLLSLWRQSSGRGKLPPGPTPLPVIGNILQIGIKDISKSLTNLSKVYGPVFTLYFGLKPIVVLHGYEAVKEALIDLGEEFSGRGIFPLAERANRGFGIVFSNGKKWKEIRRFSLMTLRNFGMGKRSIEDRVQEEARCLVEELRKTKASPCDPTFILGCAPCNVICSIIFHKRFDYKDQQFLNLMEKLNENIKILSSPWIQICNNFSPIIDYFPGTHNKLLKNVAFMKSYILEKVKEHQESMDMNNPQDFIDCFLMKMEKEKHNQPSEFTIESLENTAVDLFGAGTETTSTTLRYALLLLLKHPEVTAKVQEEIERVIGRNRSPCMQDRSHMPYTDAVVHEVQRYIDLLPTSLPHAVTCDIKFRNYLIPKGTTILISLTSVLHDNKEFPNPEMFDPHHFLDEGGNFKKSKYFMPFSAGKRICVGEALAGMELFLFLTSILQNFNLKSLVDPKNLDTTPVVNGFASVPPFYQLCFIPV
Chain of Cytochrome P450 2C19 (P33261 whole entry): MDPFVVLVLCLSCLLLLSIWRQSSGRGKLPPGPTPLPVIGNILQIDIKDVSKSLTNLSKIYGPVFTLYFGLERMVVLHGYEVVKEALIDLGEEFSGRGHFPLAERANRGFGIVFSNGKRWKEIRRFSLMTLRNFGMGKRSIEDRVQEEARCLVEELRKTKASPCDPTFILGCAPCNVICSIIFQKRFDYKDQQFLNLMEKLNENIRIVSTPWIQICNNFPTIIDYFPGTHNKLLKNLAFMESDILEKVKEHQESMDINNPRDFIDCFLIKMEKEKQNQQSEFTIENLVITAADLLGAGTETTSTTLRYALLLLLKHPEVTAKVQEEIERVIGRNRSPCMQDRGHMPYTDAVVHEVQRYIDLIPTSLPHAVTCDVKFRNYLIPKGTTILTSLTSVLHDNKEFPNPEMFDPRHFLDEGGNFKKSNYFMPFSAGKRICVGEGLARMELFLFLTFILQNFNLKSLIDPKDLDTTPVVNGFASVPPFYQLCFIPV
Chain of Cytochrome P450 3A4 (P08684 whole entry): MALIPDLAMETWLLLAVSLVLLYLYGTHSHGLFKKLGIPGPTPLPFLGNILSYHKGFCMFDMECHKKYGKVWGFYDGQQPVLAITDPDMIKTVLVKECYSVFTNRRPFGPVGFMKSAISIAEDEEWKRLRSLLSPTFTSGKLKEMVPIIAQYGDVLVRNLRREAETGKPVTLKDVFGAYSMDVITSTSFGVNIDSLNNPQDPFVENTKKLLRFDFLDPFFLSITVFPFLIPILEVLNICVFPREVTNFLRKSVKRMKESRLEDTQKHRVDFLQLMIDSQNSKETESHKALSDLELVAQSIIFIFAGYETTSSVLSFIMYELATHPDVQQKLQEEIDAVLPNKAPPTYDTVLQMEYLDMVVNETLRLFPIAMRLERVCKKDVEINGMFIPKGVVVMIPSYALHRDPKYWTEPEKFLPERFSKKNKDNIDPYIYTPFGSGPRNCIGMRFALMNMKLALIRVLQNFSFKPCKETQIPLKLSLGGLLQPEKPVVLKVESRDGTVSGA

NC(CCC(=O)O)P(=O)(O)CCc1ccc2ccccc2c1 (centres undefined)
IC50 (Glutamyl aminopeptidase): 21 nM

NC(CCC(=O)O)P(=O)(O)Cc1ccccc1 (racemic)
IC50 (Glutamyl aminopeptidase): 39 nM

Cc1ccccc1CCP(=O)(O)C(N)CCC(=O)O (centres undefined)
IC50 (Glutamyl aminopeptidase): 18 nM

Cc1cccc(CCP(=O)(O)C(N)CCC(=O)O)c1 (centres undefined)
IC50 (Glutamyl aminopeptidase): 27 nM

COc1c(Cl)cccc1CCP(=O)(O)C(N)CCC(=O)O (centres undefined)
IC50 (Glutamyl aminopeptidase): 54 nM

NC(CCC(=O)O)P(=O)(O)CCC1CCCCC1 (centres undefined)
IC50 (Glutamyl aminopeptidase): 41 nM

NC(CCC(=O)O)P(=O)(O)CCc1ccccc1Oc1ccccc1 (centres undefined)
IC50 (Glutamyl aminopeptidase): 10 nM

NC(CCS(=O)(=O)O)P(=O)(O)CCc1ccccc1 (racemic)
IC50 (Glutamyl aminopeptidase): 310 nM

NC(CCC(=O)O)P(=O)(O)CCc1ccccc1-c1ccccc1 (centres undefined)
IC50 (Glutamyl aminopeptidase): 42 nM

NC(CCC(=O)O)P(=O)(O)CCc1ccccc1 (racemic)
IC50 (Glutamyl aminopeptidase): 29 nM

COc1cccc(CCP(=O)(O)C(N)CCC(=O)O)c1 (centres undefined)
IC50 (Glutamyl aminopeptidase): 28 nM

COc1ccc(CCP(=O)(O)C(N)CCC(=O)O)cc1 (centres undefined)
IC50 (Glutamyl aminopeptidase): 24 nM

NC(CCC(=O)O)P(=O)(O)CCc1ccccc1Cl (centres undefined)
IC50 (Glutamyl aminopeptidase): 21 nM

NC(CCC(=O)O)P(=O)(O)CCc1ccccc1OC1CCCC1 (centres undefined)
IC50 (Glutamyl aminopeptidase): 9 nM

NC(CCCC(=O)O)P(=O)(O)CCc1ccccc1 (racemic)
IC50 (Glutamyl aminopeptidase): 930 nM

N[C@H](CCC(=O)O)P(=O)(O)CCc1ccccc1
IC50 (Glutamyl aminopeptidase): 660 nM

N[C@@H](CCC(=O)O)P(=O)(O)CCc1ccccc1
IC50 (Glutamyl aminopeptidase): 10 nM

NC(CCC(=O)O)P(=O)(O)CCn1ncc2ccccc21 (centres undefined)
IC50 (Glutamyl aminopeptidase): 420 nM

N[C@@H](CCS(=O)(=O)O)[C@@H](S)CCc1ccccc1
Ki (Aminopeptidase N): > 10 µM | Ki [1]: 30 nM

NC(CCC(=O)O)P(=O)(O)CCCc1ccccc1 (racemic)
IC50 (Glutamyl aminopeptidase): 54 nM

NC(CCC(=O)O)P(=O)(O)CCc1ccccc1OC(F)(F)F (centres undefined)
IC50 (Glutamyl aminopeptidase): 26 nM

Cc1ccc(CCP(=O)(O)C(N)CCC(=O)O)cc1 (centres undefined)
IC50 (Glutamyl aminopeptidase): 23 nM

NC(CCC(=O)O)P(=O)(O)CCc1cccc(Cl)c1 (centres undefined)
IC50 (Glutamyl aminopeptidase): 61 nM

NC(CCC(=O)O)P(=O)(O)CCc1cccc2ccccc12 (centres undefined)
IC50 (Glutamyl aminopeptidase): 7 nM

N[C@H](CS)CCC(=O)O
Ki [2]: 140 nM

NC(CCC(=O)O)P(=O)(O)CCc1ccccc1OC1CCCCC1 (centres undefined)
IC50 (Glutamyl aminopeptidase): 1 nM

NC(CCC(=O)O)P(=O)(O)CCc1cccc(Cl)c1Cl (centres undefined)
IC50 (Glutamyl aminopeptidase): 26 nM

COc1ccccc1CCP(=O)(O)[C@@H](N)CCC(=O)O
solubility [3]: 165 µM (≈ 49.7 µg/mL) | bioavailability (in vivo [4]): 4.1% | IC50 (Glutamyl aminopeptidase): 4 nM | concentration at 5 min [5]: 50.2 ng/g | remaining at 1 h [6]: 93% | IC50 (Aminopeptidase N): > 20 µM | remaining at 1 h [7]: 99% | concentration at 1 h [8]: 115 ng/mL | IC50 (Cytochrome P450 2C19): > 25 µM | IC50 (Cytochrome P450 1A2): > 25 µM | half-life [9]: ~30 min | IC50 (Cytochrome P450 2B6): > 25 µM | hepatic extraction ratio [10]: ~0.45 | IC50 (Cytochrome P450 2C9): > 25 µM | concentration at 5 min [11]: 281 ng/mL | Papp [12]: 0.5 ×10⁻⁶ cm/s | IC50 (Cytochrome P450 2D6): > 25 µM | concentration at 1 h [13]: 15.6 ng/g | CL renal (in vivo [14]): 0.6 mL/min | Cmax (in vivo [15]): 4920 ng/mL | IC50 (Cytochrome P450 3A4): > 25 µM | AUC(0-t) (in vivo [16]): 37.6 ng·h/mL | AUC(0-t) (in vivo [17]): 919 ng·h/mL

NC(CCP(=O)(O)O)P(=O)(O)CCc1ccccc1 (racemic)
IC50 (Glutamyl aminopeptidase): 5400 nM

COc1ccccc1CCP(=O)(O)C(N)CCC(=O)O (centres undefined)
IC50 (Glutamyl aminopeptidase): 9 nM

Cn1cc(CCP(=O)(O)C(N)CCC(=O)O)c2ccccc21 (centres undefined)
IC50 (Glutamyl aminopeptidase): 30 nM
